Counter-ions that a name gives are not always drawn. Like-named read-outs stand apart in the source and are kept apart here.
Tests used:
[1] = target: murine TRPM7 (Mus musculus, UniProt Q923J1); experiment: TRPM7-mediated cell death screen, Tet-induced Flag-murine TRPM7 HEK293 Trex cells in Mg2+-deficient HBSS, PI fluorescence
Method: In the present example, human embryonic kidney (HEK293 Trex) cells were stably transfected with a tetracycline inducible Flag-tagged TRPM7 construct.
This cell death can be measured, and the impact of a candidate TRPM7 modulator on this cell death can be measured. […] Cell death can also be measured by fluorescent measurements of propidium iodide and dihydrorhodamine.
Tet-inducible Flag-murine TRPM7/pcDNA4-TO HEK293 Trex cells are cultured in: MEM (Invitrogen) supplemented with 10% fetal bovine serum, 20 mM GlutaMAX-1, 100 units/ml penicillin G sodium, 100 units/ml streptomycin sulfate, 0.25 ug/ml amphotericin B, 5 ug/ml blasticidin, 0.4 mg/ml zeocin. (All reagent were obtained from Invitrogen)
Stably transfected Flag-murine TRPM7/pcDNA4-TO HEK293 Trex cells are thawed from frozen stock kept in liquid nitrogen, and cultured in culture medium for 5 days in 100 mm dishes (Costa). […] Cells used in the present experiments are kept to three passages or less. The cells are maintained at 37° C. with 5% CO2 in a humidified incubator. All culture plates and multi-well plates (Costa) are coated with poly-D-lysine. The coating with poly-D-lysine is performed using 0.1 mg/ml poly-D-lysine (P1045 Sigma) for 12 h at 37C, followed by four washes with sterilized D-PBS (Invitrogen) without MgCl2 and CaCl2.).
When 384 well plates are used, Cells are seeded at 1.3−1.5×10^4 cells/well. When 96 well plates are used, cells are seeded at 4−5×10^4 Cells/well. After 24 h TRPM7 expression is induced by adding tetracycline (Tet; 1 ug/ml) (Invitrogen) for 24 h, followed by wash with Mg deficient HBSS.
The test compounds were plated in 96 or 384 well formats, and initially used at a concentration of: 4 μM for compounds of the LOPAC library and 5 μM for each of the Prestwick and Maybridge libraries.
Cell death in the presence or absence of a test compound and/or under conditions of TRPM7 activation was determined by fluorescence measurements of PI (5-50 μg/ml).
In brief, B scores are a relative potency score based on the raw sample PI fluorescence value. They are the ratio of an adjusted raw PI fluorescence value in the numerator to a measure of variability in the denominator.
In another approach, used manually to validate the results of the HTS method, a multiwell plate fluorescence scanner (Fluorskan Ascent; Thermo Scientific) was used. The fraction of dead cells in each culture was calculated as: fraction DEAD=(Ft−Fo)/Fmax Where Ft=PI fluorescence of the sample at time t, Fo=initial PI fluorescence and Fmax=background subtracted PI fluorescence the same cultures after exposure to 100 μM triton-X. An alternative to this formula is a Control-based formula wherein the fraction dead=[Ft−F(−)t]/[F(+)t−F(−)t] where Ft=PI fluorescence of the sample at time t, F(−)t is the PI fluorescence of the negative control sample at time t, F(+)t is the PI fluorescence of the positive control sample at time t.
Screening was carried out in Tet-induced Flag-murine TRPM7/pcDNA4-TO HEK293 Trex cells.

[2] = target: TRPM7 (Homo sapiens, UniProt Q96QT4); conditions: Nadler et al., Jiang et al.; read-out: IC50 for inhibition of TRPM7; cited from earlier work
[3] = test system: H9c2 cells; experiment: OGD-induced cell death in H9c2 cardiomyocytes, PI uptake; format: cell-based, rat; conditions: 6 hr anoxia + 2 hr recovery, gadolinium in buffer
Method: The rat cardiomyoblast cell line H9c2 was obtained from the American Type Culture Collection (CRL-1446) and cultured in Dulbecco's Modified Eagle Medium supplemented with 10% (v/v) heat-inactivated fetal bovine serum and 1% antibiotic-antimycotic. Cells were grown in an atmosphere of […]/5% CO2 in a humidified incubator.
H9c2 cells were made anoxic by replacing the medium with de-oxygenated Ischemic buffer (in mM: 1.13 CaCl2, 5 KCl, 0.3 KH2PO4, 0.5 MgCl2, 0.4 MgSO4, 128 NaCl, 10 HEPES) and by transferring them to an anaerobic chamber (5% CO2, 10% H2, 85% N2) for 6 hrs or 16 hrs at 37° C. OGD was terminated by washing the cells with oxygenated glucose-containing Control buffer (in mM: 1.13 CaCl2, 5 KCl, 0.3 KH2PO4, 0.5 MgCl2, 0.4 MgSO4, 128 NaCl, 10 HEPES 10 Glucose). Cultures were maintained for another 2 hrs at 37° C. in a humidified 5% CO2 atmosphere. Normoxic cells were maintained in Control buffer for the duration of the experiment.
Cell death was determined by fluorescence measurements of PI (5 μg/ml) using a multiwell plate fluorescence scanner. The fraction of dead cells in each culture was calculated as: fraction dead=(Ft−F0)/Fmax where Ft=PI fluorescence at 2 hrs post-OGD, F0=initial PI fluorescence immediately after the OGD treatment, and Fmax=PI fluorescence of the same cultures following 20 mins incubation in 1% TritonX-100.
H9c2 cells were cultured and subjected to OGD as described supra. FIG. 71 panels A and B show the results of exposure to M21 or M5 for 24 hours following 6 hours of OGD. FIG. 71 panels C and D show the results of H9c2cells were treated with either 1 mM Mg^2+, 5 μM M6, M11 (acute treatment) during the anoxic and recovery periods, or 1 μM nifedipine. Results are presented as mean±SEM (n=4).

[4] = LOPAC (4 μM) and Prestwick (5 μM) hits
[5] = Prestwick library, 39 nM to 20 μM
[6] = Prestwick library, initial concentration 5 μM, HTS PI fluorescence
[7] = Prestwick library, manual replication
[8] = LOPAC library, initial concentration 4 μM, HTS PI fluorescence
[9] = LOPAC library, manual replication

Sequence of murine TRPM7 (Q923J1 whole entry): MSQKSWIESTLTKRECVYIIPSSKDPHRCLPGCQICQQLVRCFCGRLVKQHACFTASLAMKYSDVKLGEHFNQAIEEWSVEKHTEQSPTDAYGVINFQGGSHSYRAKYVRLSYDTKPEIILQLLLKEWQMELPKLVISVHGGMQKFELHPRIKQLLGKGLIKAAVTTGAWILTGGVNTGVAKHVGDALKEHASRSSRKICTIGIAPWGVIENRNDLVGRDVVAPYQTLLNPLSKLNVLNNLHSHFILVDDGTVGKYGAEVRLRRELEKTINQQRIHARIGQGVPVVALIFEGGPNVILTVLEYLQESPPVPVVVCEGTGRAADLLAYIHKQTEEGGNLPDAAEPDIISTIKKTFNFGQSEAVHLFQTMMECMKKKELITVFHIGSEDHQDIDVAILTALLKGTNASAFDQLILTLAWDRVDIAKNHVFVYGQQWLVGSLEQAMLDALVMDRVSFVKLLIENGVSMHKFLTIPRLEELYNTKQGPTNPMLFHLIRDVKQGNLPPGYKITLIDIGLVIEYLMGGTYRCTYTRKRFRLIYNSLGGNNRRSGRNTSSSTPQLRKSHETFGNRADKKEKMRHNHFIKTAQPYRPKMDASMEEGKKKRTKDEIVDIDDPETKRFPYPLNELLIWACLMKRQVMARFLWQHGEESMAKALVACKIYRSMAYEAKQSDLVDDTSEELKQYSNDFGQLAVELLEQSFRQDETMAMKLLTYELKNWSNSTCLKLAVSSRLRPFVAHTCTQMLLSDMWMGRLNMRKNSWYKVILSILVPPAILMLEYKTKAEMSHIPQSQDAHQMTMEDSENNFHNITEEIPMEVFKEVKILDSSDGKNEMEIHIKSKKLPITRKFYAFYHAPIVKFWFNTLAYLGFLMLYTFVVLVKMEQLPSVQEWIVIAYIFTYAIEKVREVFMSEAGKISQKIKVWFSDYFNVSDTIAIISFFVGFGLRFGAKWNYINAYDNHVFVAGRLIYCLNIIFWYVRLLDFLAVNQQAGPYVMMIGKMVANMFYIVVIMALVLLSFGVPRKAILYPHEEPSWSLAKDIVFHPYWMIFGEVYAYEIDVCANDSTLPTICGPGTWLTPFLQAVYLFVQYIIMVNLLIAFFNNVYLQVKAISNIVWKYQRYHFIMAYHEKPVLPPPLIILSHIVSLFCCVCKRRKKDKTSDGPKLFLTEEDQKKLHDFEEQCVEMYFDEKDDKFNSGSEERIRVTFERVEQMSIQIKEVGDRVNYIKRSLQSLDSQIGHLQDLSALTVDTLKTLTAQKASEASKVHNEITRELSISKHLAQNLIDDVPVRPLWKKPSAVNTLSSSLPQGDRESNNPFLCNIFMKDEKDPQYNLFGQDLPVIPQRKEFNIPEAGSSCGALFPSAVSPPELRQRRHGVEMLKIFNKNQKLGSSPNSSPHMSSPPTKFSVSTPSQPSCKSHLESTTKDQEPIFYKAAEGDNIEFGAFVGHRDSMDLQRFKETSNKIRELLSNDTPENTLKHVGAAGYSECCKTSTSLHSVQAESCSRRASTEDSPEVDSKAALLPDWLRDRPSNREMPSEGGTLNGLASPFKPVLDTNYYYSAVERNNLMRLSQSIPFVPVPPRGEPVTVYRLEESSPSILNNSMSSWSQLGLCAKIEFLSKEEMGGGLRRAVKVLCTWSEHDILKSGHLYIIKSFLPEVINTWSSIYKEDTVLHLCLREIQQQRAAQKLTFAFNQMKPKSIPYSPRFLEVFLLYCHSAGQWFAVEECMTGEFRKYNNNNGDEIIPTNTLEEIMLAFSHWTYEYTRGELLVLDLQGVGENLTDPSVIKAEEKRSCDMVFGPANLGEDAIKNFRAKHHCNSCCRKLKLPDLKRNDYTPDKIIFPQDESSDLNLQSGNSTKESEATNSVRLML
Sequence of TRPM7 (Q96QT4 whole entry): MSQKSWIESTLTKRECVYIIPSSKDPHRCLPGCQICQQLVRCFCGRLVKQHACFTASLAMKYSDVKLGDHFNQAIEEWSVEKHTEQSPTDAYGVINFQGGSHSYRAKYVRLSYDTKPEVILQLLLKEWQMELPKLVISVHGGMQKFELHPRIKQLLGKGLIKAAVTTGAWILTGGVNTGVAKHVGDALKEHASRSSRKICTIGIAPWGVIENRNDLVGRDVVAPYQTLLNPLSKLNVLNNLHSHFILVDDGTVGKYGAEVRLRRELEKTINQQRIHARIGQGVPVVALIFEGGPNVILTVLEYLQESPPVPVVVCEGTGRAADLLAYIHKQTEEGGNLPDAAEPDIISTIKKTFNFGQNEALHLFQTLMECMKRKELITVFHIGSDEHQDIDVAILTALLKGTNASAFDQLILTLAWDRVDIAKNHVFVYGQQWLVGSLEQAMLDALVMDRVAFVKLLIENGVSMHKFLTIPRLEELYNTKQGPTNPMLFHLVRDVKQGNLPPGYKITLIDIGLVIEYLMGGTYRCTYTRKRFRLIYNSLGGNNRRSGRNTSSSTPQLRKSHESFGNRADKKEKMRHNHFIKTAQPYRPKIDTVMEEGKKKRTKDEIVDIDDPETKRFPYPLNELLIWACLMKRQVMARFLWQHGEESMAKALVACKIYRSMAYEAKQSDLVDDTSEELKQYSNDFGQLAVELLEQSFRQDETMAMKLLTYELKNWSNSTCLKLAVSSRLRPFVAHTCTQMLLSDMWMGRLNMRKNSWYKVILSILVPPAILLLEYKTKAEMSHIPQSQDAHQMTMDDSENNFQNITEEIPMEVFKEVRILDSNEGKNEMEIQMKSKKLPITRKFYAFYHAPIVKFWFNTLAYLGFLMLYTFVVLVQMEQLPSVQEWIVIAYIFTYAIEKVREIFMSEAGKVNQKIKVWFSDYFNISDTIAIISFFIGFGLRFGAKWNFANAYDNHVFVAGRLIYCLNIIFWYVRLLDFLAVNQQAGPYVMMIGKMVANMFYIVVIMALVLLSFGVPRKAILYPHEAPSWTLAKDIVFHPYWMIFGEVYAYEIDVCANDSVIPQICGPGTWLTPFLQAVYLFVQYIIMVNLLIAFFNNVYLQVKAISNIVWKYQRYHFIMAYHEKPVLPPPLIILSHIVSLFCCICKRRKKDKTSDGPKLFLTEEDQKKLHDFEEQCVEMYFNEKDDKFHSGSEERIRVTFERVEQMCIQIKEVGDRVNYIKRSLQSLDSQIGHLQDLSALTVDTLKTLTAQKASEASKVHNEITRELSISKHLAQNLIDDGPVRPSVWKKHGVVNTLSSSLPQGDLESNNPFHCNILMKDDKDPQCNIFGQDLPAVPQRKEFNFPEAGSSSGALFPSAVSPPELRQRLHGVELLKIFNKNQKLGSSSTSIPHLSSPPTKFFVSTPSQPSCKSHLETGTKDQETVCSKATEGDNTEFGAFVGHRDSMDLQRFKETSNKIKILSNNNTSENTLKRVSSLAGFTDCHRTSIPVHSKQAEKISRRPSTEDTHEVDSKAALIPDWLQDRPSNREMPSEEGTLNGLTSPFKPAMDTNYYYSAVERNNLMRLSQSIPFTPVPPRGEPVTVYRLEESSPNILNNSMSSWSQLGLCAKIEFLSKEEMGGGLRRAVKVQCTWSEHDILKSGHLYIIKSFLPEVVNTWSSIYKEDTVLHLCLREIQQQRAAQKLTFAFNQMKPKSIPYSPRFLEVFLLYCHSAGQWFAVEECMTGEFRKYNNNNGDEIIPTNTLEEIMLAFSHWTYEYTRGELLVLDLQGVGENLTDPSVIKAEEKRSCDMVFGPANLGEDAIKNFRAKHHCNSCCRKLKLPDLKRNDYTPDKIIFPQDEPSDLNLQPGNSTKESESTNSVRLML

Compound	found to inhibit TRPM7-mediated cell injury [1, 4]	Dose-Response [1, 5]	B Score [1, 6]	Verification Ratio [1, 7]	Dose-Response ([1]; LOPAC library, 39 nM to 20 μM)	B Score [1, 8]	Verification Ratio [1, 9]	other results
COc1ccc(C[C@H]2NC[C@H](O)[C@H]2OC(C)=O)cc1 [Anisomycin]	inhibit TRPM7-mediated cell injury	Yes	−6.683	0.4265				
COc1cccc(OC)c1OCCNCC1CSc2ccccc2O1 (centres unmarked) [Benoxathian hydrochloride]	inhibit TRPM7-mediated cell injury				Yes	−10.32	0.359	
CCn1cnc2c(Nc3cccc(Cl)c3)nc(N[C@@H]3CCCC[C@@H]3N)nc21.Cl [CGP-74514A hydrochloride]	inhibit TRPM7-mediated cell injury				Yes	−7.96	0.6543	
C[C@@]12C(=O)OC(=O)[C@]1(C)[C@H]1CC[C@@H]2O1 [Cantharidin]	inhibit TRPM7-mediated cell injury		−9.671	0.3746		−10.178	0.7724	
CC[C@H]1CN2CCc3cc(OC)c(OC)cc3[C@@H]2C[C@@H]1C[C@H]1NCCc2cc(O)c(OC)cc21.Cl.Cl.O.O.O.O.O.O.O [Cephaeline dihydrochloride heptahydrate]	inhibit TRPM7-mediated cell injury		−7.927	0.2271				
O=C(O)c1cc(O)cc(C(=O)O)n1 [Chelidamic acid]	inhibit TRPM7-mediated cell injury				Yes	−12.502	1.287	
Cc1cc(C2CCCCC2)n(O)c(=O)c1.NCCO [Ciclopirox ethanolamine]	inhibit TRPM7-mediated cell injury	Yes	−5.075	0.4227				
COc1cc2c(c(OC)c1OC)-c1ccc(OC)c(=O)cc1[C@@H](NC(C)=O)CC2 [Colchicine]								B Score [1]: −7.343; Verification Ratio [1]: 0.6723; found to inhibit TRPM7-mediated cell injury [1]: inhibit TRPM7-mediated cell injury
COc1cccc2c1C(=O)c1c(O)c3c(c(O)c1C2=O)C[C@@](O)(C(C)=O)C[C@@H]3O[C@H]1C[C@H](N)[C@H](O)[C@H](C)O1 [Daunorubicin hydrochloride]	inhibit TRPM7-mediated cell injury	Yes	−5.68	0.4598				
C[C@H]1O[C@@H](O[C@H]2[C@@H](O)C[C@H](O[C@H]3[C@@H](O)C[C@H](O[C@H]4CC[C@@]5(C)[C@H](CC[C@@H]6[C@@H]5C[C@@H](O)[C@]5(C)[C@@H](C7=CC(=O)OC7)CC[C@]65O)C4)O[C@@H]3C)O[C@@H]2C)C[C@H](O)[C@@H]1O [Digoxin]								B Score [1]: −5.938; Dose-Response [1]: Yes; Verification Ratio [1]: 0.7248; found to inhibit TRPM7-mediated cell injury [1]: inhibit TRPM7-mediated cell injury
COc1cccc2c1C(=O)c1c(O)c3c(c(O)c1C2=O)C[C@@](O)(C(=O)CO)C[C@@H]3O[C@H]1C[C@H](N)[C@H](O)[C@H](C)O1 [Doxorubicin hydrochloride]	inhibit TRPM7-mediated cell injury	Yes	−9.315	0.4588				
CCOc1ccc(Cc2nccc3cc(OCC)c(OCC)cc23)cc1OCC [Ethaverine hydrochloride]	inhibit TRPM7-mediated cell injury	Yes	−9.238	0.08142				
Ic1ccccc1CNC1C2CCN(CC2)C1C(c1ccccc1)c1ccccc1.O=C(O)C(=O)O [L-703,606 oxalate]	inhibit TRPM7-mediated cell injury				Yes	−8.636	0.373	
CC[C@@H](C(=O)[C@@H](C)[C@@H](O)[C@H](C)CCc1ccc(C)c(O)c1C(=O)O)[C@H]1O[C@](CC)([C@H]2CC[C@](O)(CC)[C@H](C)O2)C[C@@H]1C [Lasalocid sodium salt]	inhibit TRPM7-mediated cell injury		−5.54	0.6891				
[Mg+2] [Mg^2+]								IC50 [2]: ~600 µM
O=C1c2c(O)ccc(O)c2C(=O)c2c(NCCNCCO)ccc(NCCNCCO)c21 [Mitoxantrone]	inhibit TRPM7-mediated cell injury				Yes	−7.587	0.25	
COc1ccccc1N1CCN(CC(O)COc2cccc3ccccc23)CC1 (centres unmarked) [Naftopidil dihydrochloride]	inhibit TRPM7-mediated cell injury		−8.736	0.1346	Yes	−7.535	0.2231	
COC(=O)C1=C(C)NC(C)=C(C(=O)OCCN(C)Cc2ccccc2)C1c1cccc([N+](=O)[O-])c1 (centres unmarked) [Nicardipine hydrochloride]	inhibit TRPM7-mediated cell injury	Yes	−7.543	0.6651				
COc1cc(/C=C/C(=O)N2CCC=CC2=O)cc(OC)c1OC [Piperlongumine]	inhibit TRPM7-mediated cell injury	Yes	−9.599	0.7354				
COc1ccc(C[C@H](N)C(=O)N[C@H]2[C@@H](O)[C@H](n3cnc4c(N(C)C)ncnc43)O[C@@H]2CO)cc1 [Puromycin dihydrochloride]	inhibit TRPM7-mediated cell injury	Yes	−5.573	0.5905				
CCN(CC)CCCC(C)Nc1c2ccc(Cl)cc2nc2ccc(OC)cc12 (centres unmarked) [Quinacrine dihydrochloride]	inhibit TRPM7-mediated cell injury				Yes	−5.516	0.8254	
C[n+]1cc2c3c(ccc2c2ccc4cc5c(cc4c21)OCO5)OCO3 [Sanguinarine chloride]	inhibit TRPM7-mediated cell injury					−6.158	0.8029	
COc1cc2c(cc1OC)-c1c/c(=N\c3c(C)cc(C)cc3C)n(C)c(=O)n1CC2 [Trequinsin hydrochloride]	inhibit TRPM7-mediated cell injury				Yes	−8.81	0.2534	
[Gd] [gadolinium, reference compound]								OGD-mediated cell death [3]: reduced

From patent US8680137B2, “Agents and methods for treating ischemic and other diseases” (Nono Inc., priority 2009, dated 2014)
